Laboratory results published in ChEMBL document CHEMBL1143297, “Synthesis and CHK1 inhibitory potency of Hymenialdisine analogues” (Bioorg Med Chem Lett, 2009).
Calls of active or inactive are those of the source. The calls are words filed in the database; no cut-off is given here.

target: Receptor-type tyrosine-protein kinase FLT3 (Homo sapiens) (UniProt P36888); assay: Inhibition of FLT3
Sequence (P36888 whole entry): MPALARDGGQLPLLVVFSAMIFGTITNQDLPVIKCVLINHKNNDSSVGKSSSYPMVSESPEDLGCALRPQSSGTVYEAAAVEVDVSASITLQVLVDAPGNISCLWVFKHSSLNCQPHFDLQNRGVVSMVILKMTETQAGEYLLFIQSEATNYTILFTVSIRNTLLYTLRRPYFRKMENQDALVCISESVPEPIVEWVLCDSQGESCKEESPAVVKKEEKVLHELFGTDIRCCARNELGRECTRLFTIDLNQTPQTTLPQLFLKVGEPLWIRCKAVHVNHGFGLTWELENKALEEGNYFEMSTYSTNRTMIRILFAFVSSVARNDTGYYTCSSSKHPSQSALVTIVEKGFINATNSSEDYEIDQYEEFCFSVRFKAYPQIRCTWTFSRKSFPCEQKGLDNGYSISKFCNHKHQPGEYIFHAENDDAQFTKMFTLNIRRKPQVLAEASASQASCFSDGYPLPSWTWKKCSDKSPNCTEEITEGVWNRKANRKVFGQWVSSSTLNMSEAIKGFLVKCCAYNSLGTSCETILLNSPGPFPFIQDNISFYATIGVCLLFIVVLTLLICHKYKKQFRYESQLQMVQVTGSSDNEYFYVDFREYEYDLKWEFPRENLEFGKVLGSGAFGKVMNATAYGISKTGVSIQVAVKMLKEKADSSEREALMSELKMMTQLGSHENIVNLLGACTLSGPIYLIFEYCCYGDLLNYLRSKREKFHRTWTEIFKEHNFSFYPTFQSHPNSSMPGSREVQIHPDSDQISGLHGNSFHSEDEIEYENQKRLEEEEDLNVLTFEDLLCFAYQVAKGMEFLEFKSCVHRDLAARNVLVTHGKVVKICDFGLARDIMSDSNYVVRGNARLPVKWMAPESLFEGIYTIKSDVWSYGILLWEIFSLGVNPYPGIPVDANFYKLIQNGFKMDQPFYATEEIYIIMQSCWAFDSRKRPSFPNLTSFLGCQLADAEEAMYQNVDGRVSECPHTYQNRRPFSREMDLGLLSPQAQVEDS

Activity	SMILES
Active	NC1=NC(=O)/C(=C2\CCNC(=O)c3[nH]c4c(Br)csc4c32)N1

target: T1, Serine/threonine-protein kinase Chk1 (Homo sapiens, UniProt O14757); assay: Inhibition of CHK1
T1 sequence (O14757 whole entry): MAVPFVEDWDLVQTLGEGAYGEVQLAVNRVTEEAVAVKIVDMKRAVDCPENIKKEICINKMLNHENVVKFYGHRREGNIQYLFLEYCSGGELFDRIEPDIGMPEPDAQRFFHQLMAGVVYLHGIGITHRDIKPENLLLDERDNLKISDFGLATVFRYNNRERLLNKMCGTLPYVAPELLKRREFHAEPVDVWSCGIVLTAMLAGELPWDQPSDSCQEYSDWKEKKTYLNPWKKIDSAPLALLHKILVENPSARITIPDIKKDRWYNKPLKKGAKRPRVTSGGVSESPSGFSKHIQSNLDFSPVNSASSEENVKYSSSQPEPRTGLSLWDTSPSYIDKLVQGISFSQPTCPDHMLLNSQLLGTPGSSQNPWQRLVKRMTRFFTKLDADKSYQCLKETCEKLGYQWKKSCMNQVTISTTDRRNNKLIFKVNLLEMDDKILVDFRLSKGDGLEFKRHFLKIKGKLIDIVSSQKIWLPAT

SMILES	IC50 [nM]
N#Cc1csc2c3c([nH]c12)C(=O)NCC/C3=C1/NC(N)=NC1=O	29
NC1=NC(=O)/C(=C2\CCNC(=O)c3[nH]c4c(sc5ccccc54)c32)N1	230
O=C(O)CNC1=NC(=O)/C(=C2\CCNC(=O)c3[nH]c4c(Br)csc4c32)N1	260
NC1=NC(=O)/C(=C2\CCNC(=O)c3[nH]c4c(Br)csc4c32)S1	190
NC(=O)c1csc2c3c([nH]c12)C(=O)NCC/C3=C1/NC(N)=NC1=O	150
O=C1N=C(NCCO)N/C1=C1/CCNC(=O)c2[nH]c3c(Br)csc3c21	280
NC1=NC(=O)/C(=C2\CCNC(=O)c3[nH]c4c(-c5ccccc5)csc4c32)N1	1300
NC1=NC(=O)/C(=C2\CCNC(=O)c3[nH]c4c(Cl)csc4c32)N1	140
NC1=NC(=O)/C(=C2\CCNC(=O)c3[nH]c(Br)c(Br)c32)N1	100
NC1=NC(=O)/C(=C2\CCNC(=O)c3[nH]c4c(Cl)c(Cl)sc4c32)N1	890

The next lines start with the values.

IC50 [nM]	SMILES
460	NC1=NC(=O)/C(=C2\CCNC(=O)c3[nH]c4cc(Br)sc4c32)N1
300	NC1=NC(=O)/C(=C2\CCNC(=O)c3[nH]c4cc(Cl)sc4c32)N1
> 10000	COc1ccc(Cn2c3c(c4scc(Br)c42)/C(=C2\NC(N)=NC2=O)CCNC3=O)cc1
330	NC1=N/C(=C2/CCNC(=O)c3[nH]ccc32)C(=O)N1 [DEBROMOHYMENIALDISINE]
180	NC1=NC(=O)/C(=C2\CCNC(=O)c3[nH]c4ccsc4c32)S1
470	Nc1nc(C2=C3C(=Nc4ccccc43)C(=O)NCC2)c(O)[nH]1
> 10000	NC1=NC(=O)/C(=C2\CCNC(=O)c3[nH]c4c(sc5ccccc54)c32)S1
> 10000	NC1=NC(=O)/C(=C2\CCNC(=O)c3[nH]c4c(-c5ccccc5)csc4c32)S1
> 10000	Cn1c2c(c3sccc31)/C(=C1\NC(N)=NC1=O)CCNC2=O
150	NC1=NC(=O)/C(=C2\CCNC(=O)c3[nH]c4ccsc4c32)N1
14	NC1=NC(=O)/C(=C2\CCNC(=O)c3[nH]c4c(Br)csc4c32)N1
1900	NC1=NC(=O)/C(=C2\CCNC(=O)c3[nH]c(Br)cc32)N1 [HYMENIALDISINE]
1700	O=C1N=C(NCCO)N/C1=C1/CCNC(=O)c2[nH]c3ccsc3c21

target: Glycogen synthase kinase-3 beta (Homo sapiens) (UniProt P49841); assay: Inhibition of GSK3-beta
Sequence (P49841 whole entry, looked up): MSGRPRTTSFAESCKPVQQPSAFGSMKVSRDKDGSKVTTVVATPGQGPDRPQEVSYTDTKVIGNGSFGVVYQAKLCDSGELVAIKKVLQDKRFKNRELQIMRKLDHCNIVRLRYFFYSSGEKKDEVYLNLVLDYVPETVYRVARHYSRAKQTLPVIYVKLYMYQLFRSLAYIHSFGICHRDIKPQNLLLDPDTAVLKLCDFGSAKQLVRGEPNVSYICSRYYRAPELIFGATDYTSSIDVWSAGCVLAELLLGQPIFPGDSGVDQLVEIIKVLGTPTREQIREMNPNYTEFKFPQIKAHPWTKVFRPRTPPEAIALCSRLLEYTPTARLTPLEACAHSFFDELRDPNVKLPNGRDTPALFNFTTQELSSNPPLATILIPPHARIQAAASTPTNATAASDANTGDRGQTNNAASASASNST

Activity	SMILES
Active	NC1=NC(=O)/C(=C2\CCNC(=O)c3[nH]c4c(Br)csc4c32)N1

target: Serine/threonine-protein kinase SIK1 (Homo sapiens) (UniProt P57059); assay: Inhibition of SIK
Sequence (P57059 whole entry): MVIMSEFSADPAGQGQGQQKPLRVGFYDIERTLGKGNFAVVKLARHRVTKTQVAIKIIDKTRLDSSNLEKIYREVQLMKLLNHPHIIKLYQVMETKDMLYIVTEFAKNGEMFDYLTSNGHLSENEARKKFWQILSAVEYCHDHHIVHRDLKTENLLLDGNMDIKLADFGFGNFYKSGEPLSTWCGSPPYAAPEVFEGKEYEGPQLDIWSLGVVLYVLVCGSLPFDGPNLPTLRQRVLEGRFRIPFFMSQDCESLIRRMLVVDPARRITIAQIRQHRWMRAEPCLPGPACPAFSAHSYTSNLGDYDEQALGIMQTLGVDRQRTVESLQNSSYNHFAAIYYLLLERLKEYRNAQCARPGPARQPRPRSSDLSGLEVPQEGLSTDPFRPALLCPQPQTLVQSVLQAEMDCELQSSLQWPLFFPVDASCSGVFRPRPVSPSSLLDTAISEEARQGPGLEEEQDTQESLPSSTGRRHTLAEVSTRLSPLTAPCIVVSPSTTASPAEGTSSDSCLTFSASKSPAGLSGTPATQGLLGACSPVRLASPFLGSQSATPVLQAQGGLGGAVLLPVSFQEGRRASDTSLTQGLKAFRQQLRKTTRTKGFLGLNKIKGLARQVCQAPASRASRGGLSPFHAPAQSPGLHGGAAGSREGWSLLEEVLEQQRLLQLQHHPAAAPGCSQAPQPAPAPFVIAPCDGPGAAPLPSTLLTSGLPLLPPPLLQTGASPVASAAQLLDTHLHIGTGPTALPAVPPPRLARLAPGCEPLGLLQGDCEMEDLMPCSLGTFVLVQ

Activity	SMILES
Active	NC1=NC(=O)/C(=C2\CCNC(=O)c3[nH]c4c(Br)csc4c32)N1

target: T2, NUAK family SNF1-like kinase 1 (Homo sapiens) (UniProt O60285); assay: Inhibition of ARK5
T2 sequence (whole entry): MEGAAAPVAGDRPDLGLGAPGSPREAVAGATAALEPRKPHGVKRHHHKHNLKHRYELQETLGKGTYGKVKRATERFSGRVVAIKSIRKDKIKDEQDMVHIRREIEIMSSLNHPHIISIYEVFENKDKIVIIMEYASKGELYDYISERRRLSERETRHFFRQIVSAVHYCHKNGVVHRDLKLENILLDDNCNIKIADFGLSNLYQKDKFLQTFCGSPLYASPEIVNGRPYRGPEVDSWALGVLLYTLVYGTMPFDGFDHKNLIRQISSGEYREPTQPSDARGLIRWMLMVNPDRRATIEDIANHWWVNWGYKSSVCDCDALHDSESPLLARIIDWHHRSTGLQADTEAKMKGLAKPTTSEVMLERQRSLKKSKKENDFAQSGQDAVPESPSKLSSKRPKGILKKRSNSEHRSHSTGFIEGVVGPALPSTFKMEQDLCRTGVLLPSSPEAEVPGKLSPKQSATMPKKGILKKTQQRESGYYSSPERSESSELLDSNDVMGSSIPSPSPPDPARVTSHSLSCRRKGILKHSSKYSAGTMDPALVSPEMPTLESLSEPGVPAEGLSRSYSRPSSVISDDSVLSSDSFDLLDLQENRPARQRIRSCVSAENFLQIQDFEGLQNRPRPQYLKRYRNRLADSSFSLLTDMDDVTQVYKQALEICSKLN

Activity	SMILES
Active	NC1=NC(=O)/C(=C2\CCNC(=O)c3[nH]c4c(Br)csc4c32)N1
